Experimental data reported in patent US8367727B2, “Method of using abscisic acid to treat diseases and disorders” (priority 2006, dated 2013).
Marks after values point to notes of the source that are not given here.

How the values were obtained:
[1] = tested on: lymphocytes derived from the spleen; assay: Anti-CD3-induced proliferation of spleen-derived lymphocytes; format: cell-based; details: ABA-fed mice (controls 30.12)
[2] = Body weight, organ weights and feed intake of db/db mice; format: in vivo
Protocol: (§1) Experiment 1: mice (n=25) were fed high-fat (>40% energy from fat), isocaloric, isonitrogenous diets containing 0, 100, 200, 400, and 800 mg of a racemic (±) ABA mixture/kg diet for 36 days (Table 1) (Sigma). These doses were chosen based on the standard concentrations of TZDs utilized in the treatment of NIDDM. The mice were weighed and their food intake was recorded daily. On day 36 of the study fasted mice (12 h) were bled through the caudal vein and fasting blood glucose concentrations were determined. To investigate the ability of ABA to normalize glucose concentrations, an intraperitoneal glucose tolerance test (IPGTT) was performed on day 36 on the fasted mice. Briefly, mice were bled at 0, 10, 25, and 45 minutes following the administration of glucose (2 g/kg) for measurement of plasma glucose levels. […] Weights were recorded for WAT, interscapular brown adipose tissue (BAT), and liver.
(§2) Experiment 2: The ABA dose utilized (100 mg ABA/kg) was based on the results obtained from the IPGTT of the ABA titration study (i.e., Experiment 1). Mice in experiment 2 were fed high-fat diets containing 0 or 100 mg ABA/kg for 36 days. Their body weights and food intake was recorded daily, and blood was collected on day 36 of the study during an IPGTT. This IPGTT included one additional 100 minutes time point. […] Weights were recorded for abdominal WAT, BAT, and liver.

db/db mice [3] = assay: Liver histology, hepatic steatosis by NASH scoring method; format: in vivo; details: day 36, P<0.02
Text: (§3) Hepatic and adipose sections were fixed in 10% buffered neutral formalin, embedded in paraffin, cut at thicknesses of 7 microns and later stained with hematoxylin and eosin (H&E) for histological examination of adipocyte hypertrophy and inflammatory lesions. Hepatic sections were scored based on the amount of lipodystrophy observed according to the Nonalcoholic steatohepatitis (NASH) scoring method, with a score of 0 signifying <5% of the cells contain lipid droplets and a score of 4 signifying that >75% of the cells contained lipids and a magnification of 400× (23). The final score was the average of five randomly chosen fields. The area of adipocytes from WAT was analyzed using Sigma Pro® 5.0 software at a magnification of 100×, and macrophage infiltration was determined by averaging the number of macrophages observed in five different fields at 400×.

db/db mice [4] = assay: Intraperitoneal glucose tolerance test (IPGTT) in db/db mice; format: in vivo
Protocol: as §1, §2

[5] = tested on: immune cell populations in blood and MLN; assay: Immunophenotyping of blood and mesenteric lymph nodes by flow cytometry after DSS challenge; format: in vivo, mice
Protocol: MLNs were excised and crushed with frosted slides, washed with PBS, and resuspended in PBS and enumerated with a Coulter Counter (Beckman Coulter, Fullerton, Calif.). MLN-derived cells (2×10^5 cells/well) or whole blood (10 μL/well) were seeded onto 96-well plates, centrifuged at 4° C. at 3000 rpm for 4 minutes, and washed with PBS containing 5% serum and 0.09% sodium azide (FACS buffer). […] For lymphocyte assessment, cells were incubated with anti-CD4-Alexa Fluor 700 (2 μg/mL; BD Pharmingen), anti-CD8-PerCp-Cy5.5 (2 μg/mL, eBioscience), CD3 PE-Cy5 (2 μg/mL; BD Pharmingen), anti-CD25-FITC (BD), anti-CTLA-4 FITC (BD), or anti-FoxP3-PE (2 μg/mL, eBioscience) as previously shown (77). Flow results were computed with a BD LSR II flow cytometer and data analyses was performed with FACS Diva software (BD).

influenza virus antigens = assay: Antigen-specific T cell response after immunization with inactivated influenza virus vaccine; format: cell-based; details: ABA-fed mice (controls 5)
MCP-1, PPAR γ, CD36 = assay: Real-time qRT-PCR of stromal-vascular cells (SVCs), adipocytes and liver, db/db mice; format: in vivo
Text: Complementary DNA (cDNA) concentrations for genes of interest were examined by real-time quantitative PCR using an iCycler IQ System and the iQ SYBR green supermix (BioRad). A standard curve was generated for each gene using 10-fold dilutions of purified amplicons starting at 5 pg of cDNA and used later to calculate the starting amount of target cDNA in the unknown samples. SYBR green I is a general double-stranded DNA intercalating dye and may therefore detect nonspecific products and primer/dimers in addition to the amplicon of interest. In order to determine the number of products synthesized during the real-time PCR, a melting curve analysis was performed on each product. Real-time PCR was used to measure the starting amount of nucleic acid of each unknown sample of cDNA on the same 96-well plate. Results are presented as starting quantity of target cDNA (picograms) per microgram of total RNA.

db/db mice [6] = assay: Fasting blood glucose in db/db mice fed high-fat diets for 36 days; format: in vivo; details: day 36
Protocol: Four week-old, male BKS.Cg-+Lepr^db/+Lepr^db/OlaHsd (db/db) mice were purchased from Harlan Laboratories (Indianapolis, Ind.) and maintained at the animal facilities at Virginia Polytechnic Institute and State University in a room maintained at 75° F., with a 12:12 h light-dark cycle starting from 6:00 AM. All experimental procedures were approved by the Institutional Animal Care and Use Committee of Virginia Polytechnic Institute and State University and met or exceeded requirements of the Public Health Service/National Institutes of Health and the Animal Welfare Act.
as §1, §2
Experiment 1 was a dose-titration study, where we fed 4-week old db/db mice (n=25) diabetogenic, high fat diets containing either 0, 100, 200, 400, or 800 mg racemic ABA mixture/kg diet. […] These in vivo results are in agreement with the transfection findings showing no difference in PPAR γ transactivation between 10 and 50 μM ABA.

[7] = tested on: white adipose tissue (WAT) of db/db mice; assay: WAT histology: adipocyte area and macrophage infiltration; format: in vivo
Text: as §3

[8] = Experiment 2, 100 mg ABA/kg diet

Structure (SMILES): CC1=CC(=O)CC(C)(C)C1(O)/C=C/C(C)=C\C(=O)O (racemic) [ABA, abscisic acid]
- stimulation index, anti-CD3-induced proliferation [1]: 8.55
- final body weight less than control mice ([2]; 41.34 g vs 43.54 g, not statistically significant): approximately 2.2 grams
- Total feed intake ([2]; between treatment groups): did not differ significantly
- Final body weight ([2]; db/db mice, 100 mg ABA/kg diet, day 36): no significant differences in body weights
- hepatic steatosis (NASH scoring) (db/db mice [3]): significantly mitigated
- response in glucose homeostasis during the IPGTT, dose comparison (db/db mice [4]; Experiment 1, 100 mg ABA/kg dose): most favorable response
- response to the IPGTT (db/db mice [4]; Experiment 1, day 36): improved response to the IPGTT
- glucose levels during IPGTT versus control (db/db mice [4]; [8]): significantly lower at every time point up to 100 minutes
- CTLA-4 expression on CD4+ T cells in blood ([5]; ABA-fed wild-type mice): significantly increased
- percent of CD4+CD25+FoxP3+ regulatory T cells ([5]; MLN): significantly increased
- effect on F4/80+CD11b+ monocytes ([5]; PPAR γ-deficient (CD4cre) mice): absent
- increase of CTLA-4 expression on CD4+ T cells in blood ([5]; lack of PPAR γ (CD4cre mice)): abrogated
- F4/80+CD11b+ monocytes ([5]; wt mice, blood): significantly decreased
- production of interleukin-2 (IL-2) (influenza virus antigens): 31.67 picograms IL-2/ml of cell supernatant
- MCP-1 mRNA in the adipocyte fraction (MCP-1, PPAR γ, CD36; P=0.05): significant reduction
- CD36 expression (MCP-1, PPAR γ, CD36; SVCs and adipocytes): only significantly elevated in SVCs
- PPAR γ mRNA expression (MCP-1, PPAR γ, CD36; SVCs and adipocytes): higher in both SVCs and adipocytes
- mRNA expression of MIP-1α or TLR-4 (MCP-1, PPAR γ, CD36; SVCs or adipocytes): did not see significant differences
- decrease of MCP-1 mRNA in SVCs (MCP-1, PPAR γ, CD36; db/db mice, 100 mg/kg diet, 36 days): ~15 fold
- fasting blood glucose (FBG) concentrations versus control diet (db/db mice [6]; 100 to 800 mg ABA/kg diet): significantly lower
- Fasting glucose (db/db mice [6]; Experiment 1, 100 mg ABA/kg diet): 219.6^b mg/dL
- Fasting glucose (db/db mice [6]; Experiment 1, 200 mg ABA/kg diet): 210.2^b mg/dL
- Fasting glucose (db/db mice [6]; Experiment 1, 400 mg ABA/kg diet): 185.6^a mg/dL
- Fasting glucose (db/db mice [6]; Experiment 1, 800 mg ABA/kg diet): 202.0^b mg/dL
- Fasting glucose (db/db mice [6]; [8]): 190.7^b mg/dL
- adipocyte size in WAT ([7]; ABA-fed vs control-fed db/db mice): significantly more small adipocytes and fewer hypertrophic adipocytes
- macrophages infiltrating WAT ([7]; ABA-fed vs control-fed, P<0.05): significantly lower number of macrophages
